Measured values as given in patent US20230357320A1, “HELICAL STAPLED PEPTIDES AND USES THEREOF” (FOG PHARMACEUTICALS, INC., priority 2020, published 2023).
Like-named read-outs stand apart in the source and are kept apart here. Starred links: 1 amine or outer side, 2 acyl side, 3 side chain; linkers in the order of their positions; H or OH if unused. Positions of bridges follow the written chain, without caps; N, C: chain ends. Non-standard residues stand in square brackets, D forms with d. Residues, ends and D or L forms follow the SMILES beside them. X1 = O=C([C@]1(CC=[*:3])CCCN1[*:1])[*:2]; Ala(cPr) = N[C@@H](CC1CC1)C(=O)O; S5 = C=CCCC[C@](C)(N)C(=O)O

Experiments:
ERβ LBD = molecular target: T1, ERβ LBD (Homo sapiens, UniProt Q92731); assay: Competition fluorescence polarization (FP) binding assay with FITC-ERL4 probe; conditions: read-out: EC50
T1 construct: pET28a+ vector containing ERβ LBD (residues from 261 to 500) along with an N-terminal His6-yBBr-TEV tag; His6 (N); yBBr (N); TEV cleavage site (N); made in house; host or cells: E. coli BL21(DE3) pLysS
Description: In addition to the PAMPA assay, to study the affinity of the first-generation ProLock™ stapled peptides to the Estrogen receptor p ligand-binding domain (ERβ LBD), a fluorescence polarization (FP) binding assay in competition format was used in the presence of the endogenous ERβ LBD ligand estradiol. Competition Fluorescence Polarization (FP) assay was performed on the peptides to determine their half-maximal effective concentration (EC50). To do this, FITC labeled ERL4 peptide (FITC-βAla-His-Pro-Leu-Leu-Nle-Arg-Leu-Leu-Leu-Ser-Pro-CONH2) was synthesized to be used as a fluorescence probe based on existing literature (Fuchs et al., Journal of the American Chemical Society 2013, 135 (11), 4364-4371). Direct FP was performed in black 384-well plates (Corning). The final volume of each assay well was 40 μL with constant concentration of FITC labeled ERL4 peptide (10 nM) and variable concentrations of ERβ LBD protein.
ERβ LBD expression and purification was performed as follows. BL21(DE3) pLysS E. coli cells were transformed with a pET28a+ vector containing ERβ LBD (residues from 261 to 500) along with an N-terminal His6-yBBr-TEV tag. An overnight culture in 10 mL of TB media containing 50 μg/mL kanamycin was prepared from a single bacterial colony. The overnight culture was subsequently added to 1 liter of autoclaved TB media containing 50 μg/mL kanamycin and shaken at 37° C. until an OD of 0.6-0.8 was reached. IPTG was added to the culture and left shaking for 6 hours. Bacterial culture was pelleted and resuspended in lysis buffer. Resuspended bacterial culture was incubated at 0° C. for 10 minutes before sonication at 65% amplitude with 10-sec cycles using a Branson Sonifier. The lysate was then cleared by centrifugation at 8000×g for 20 min. […] The expected molecular weight of the ERβ LBD protein is 30.8 KDa, which molecular weight was confirmed by SDS PAGE analysis. Purified ERβ LBD was concentrated to 90 μM and was stored at −80° C. buffer.
Competition FP assays were also employed. These were performed in black 384-well plates (Corning). The final volume of each assay well was 80 μL containing constant concentrations of estradiol (1 μM) and FITC labeled ERL4 (10 nM). The ERβ LBD concentration was held constant (200 nM) while varying the concentration of ProLock stapled peptides (3-fold dilution from 10 μM). Upon addition of samples to each well, the plate was centrifuged for 10 seconds at 3000 rpm and incubated at 4° C. for 1 hour. FP measurements were performed at room temperature with excitation and emission wavelengths at 485 and 535 nm using a Clariostar microplate reader (BMG Labtech). Each plate had high and low polarization samples, which are used to normalize the assay data. The competition FP results were analyzed by Prism 7 (GraphPad). The non-linear regression analysis of the data was used to determine the half-maximal effective concentration (EC50) of ProLock stapled peptides. […] The normalized FP values shown in FIG. 6 are mean±S.E.M of at least four independent replicates.

in vitro = assay: in vitro; parameters: dose or concentration left out as unconfirmed; conditions: PAMPA, pH 7.4, PAMPA Pe
Description: (§1) The synthesized peptides were first analyzed with a PAMPA assay. […] The PAMPA plate system is composed of two compartments, donor and acceptor, which are separated by a phospholipid-infused membrane. The amount of compound transferred from the acceptor well into the donor well over a period of incubation time is used to determine the passive permeability of a compound.
(§2) The two plates are separated by a membrane infused with phospholipids. […] The amount of compound transferred from one well to the other is usually quantified by reverse-phase HPLC-mass spectrometry.
(§3) Briefly, all PAMPA assays were performed using the commercially available PAMPA plate system from Corning, which uses a proprietary membrane composed of structured phospholipids. […] To prevent nonspecific peptide loss to the plates, the acceptor wells of the Corning PAMPA plates were blocked overnight with 5% nonfat milk with 0.1% Triton X-100 in Dulbecco's phosphate buffer saline (DPBS) at pH=7.4, followed by extensive washing prior to assays. The donor wells and membrane itself were not exposed to the milk/Triton solution. […] The PAMPA experiments described herein were performed using plates from Corning Lot #9112010, Lot #9112011 and Lot #7317005 (Corning Inc., Corning, New York, USA).
(§4) To set up PAMPA assays, the PAMPA plate system was equilibrated at room temperature for at least an hour before setting up the assay. The acceptor plate preincubated with milk blocking solution was washed with water, followed by DPBS buffer. 300 μL of 5% DMSO in DPBS at pH=7.4 was added to the pre-blocked acceptor plate, and 200 μL of 10M compounds made with 5% DMSO in DPBS at pH=7.4 was added to the donor plate. The donor plate with a lid was then carefully inserted into the acceptor plate with no bubbles formed at the interface of donor and acceptor plates. The PAMPA assay plate was covered with aluminum foil and placed in a 37° C. incubator for 5 hours. 10 M input solution of all compounds was diluted 20-fold to a final acetonitrile concentration of 50% before analyzing by reverse-phase HPLC and Q-Exactive plus mass spectrometer. At the end of 5 hours, PAMPA donor and acceptor plates were separated and diluted 20-fold and 2-fold respectively to a final acetonitrile concentration of 50%. The diluted solutions of PAMPA donor and acceptor plates were analyzed by reverse-phase HPLC and Q-Exactive plus mass spectrometer.
(§5) Pe measures the passive permeability of each compound tested in the PAMPA assay, whereas % retention measures the amount of compound retained in solution at the end of the assay compared to the input sample.

[1] = CHI Log D measurement (chromatographic hydrophobicity index); conditions: pH 7.4
[2] = for % Retention: PAMPA
Description: as §1, §2, §3, §4, §5

[3] = Table 4, binding to ER LBD, estradiol 1 μM, FITC-ERL4 10 nM, ERβ LBD 200 nM, mean ± S.E.M, at least four replicates
[4] = reverse-phase HPLC, Phenomenex Gemini C-18 column
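Throughout, for % Retention: Phospholipid-membrane PAMPA, donor and acceptor in DPBS pH 7.4 with 5% DMSO, 37 °C for 5 h, compound in each well quantified by reverse-phase HPLC-MS.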
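Throughout, for PAMPA Pe (text): Phospholipid-membrane PAMPA, donor and acceptor in DPBS pH 7.4 with 5% DMSO, 37 °C for 5 h, compound in each well quantified by reverse-phase HPLC-MS.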
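Throughout, for PAMPA Pe: Phospholipid-membrane PAMPA, donor and acceptor in DPBS pH 7.4 with 5% DMSO, 37 °C for 5 h, compound in each well quantified by reverse-phase HPLC-MS.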
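Throughout, for Papp: Phospholipid-membrane PAMPA, donor and acceptor in DPBS pH 7.4 with 5% DMSO, 37 °C for 5 h, compound in each well quantified by reverse-phase HPLC-MS.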

Row | SMILES | EC50 (ERβ LBD; [3]) | Papp at 5 h (in vitro) | chromatographic logD [1, 4] | % Retention [2] | chromatographic logD [1] | EC50 (ERβ LBD; binding towards the ERβ LBD) | PAMPA Pe [2] | PAMPA Pe (text) [2]
1 | CC[C@H](C)[C@@H]1NC(=O)[C@]2(CC=CCCC[C@@](C)(C(=O)N[C@@H](Cc3ccc(O)cc3)C(=O)N[C@@H](CC(C)C)C(=O)N[C@@H](CC(C)C)C(=O)N[C@@H](CC(=O)O)C(=O)NC)NC(=O)[C@H](CC(C)C)NC1=O)CCCN2C(C)=O [PLL5-4, Ac-PL3-Ile-Leu-S5-Tyr-Leu-Leu-Asp-NHMe] (Ac-[X1]IL[S5]YLLD-NHMe; staple 1-4) | 1.3 ± 0.1 µM | 3 ± 1 nm/s | 2.4 | 100 ± 1% | – | – | – | –
2 | CNC(=O)[C@H](CC(=O)O)NC(=O)[C@H](CC(C)C)NC(=O)[C@H](CC(C)C)NC(=O)[C@H](Cc1ccc(O)cc1)NC(=O)[C@]1(C)CCCC=CC[C@]2(CCCN2C(C)=O)C(=O)N[C@@H](CCCCN)C(=O)N[C@@H](CC(C)C)C(=O)N1 (single isomer, unassigned) [PLL5-6, Ac-PL3-Lys-Leu-S5-Tyr-Leu-Leu-Asp-NHMe] | > 10 µM | 15 ± 2 nm/s | – | 105 ± 5% | 1.2 | – | – | –
3 | CNC(=O)[C@H](CC(=O)O)NC(=O)[C@H](CCC(N)=O)NC(=O)[C@H](CC(C)C)NC(=O)[C@H](CC(C)C)NC(=O)[C@H](Cc1ccc(O)cc1)NC(=O)[C@]1(C)CCCC=CC[C@]2(CCCN2C(C)=O)C(=O)N[C@@H](CC2CC2)C(=O)N[C@@H](CC(C)C)C(=O)N1 [PLL7-7, Ac-PL3-Cpa-Leu-S5-Tyr-Leu-Leu-Gln-Asp-NHMe] (Ac-[X1][Ala(cPr)]L[S5]YLLQD-NHMe; staple 1-4) | 0.9 ± 0.1 µM | 10 ± 1 nm/s | 2 | 108 ± 3% | – | 0.8 to 1.3 µM | 1.0 ± 0.1 (×10^−6) cm/sec | exceeding 1 ×10^−6 cm/sec
4 | CNC(=O)[C@H](CC(=O)O)NC(=O)[C@H](CCC(N)=O)NC(=O)[C@H](CC(C)C)NC(=O)[C@H](CC(C)C)NC(=O)[C@H](CCCNC(=N)N)NC(=O)[C@]1(C)CCCC=CC[C@]2(CCCN2C(C)=O)C(=O)N[C@@H](CC2CC2)C(=O)N[C@@H](CC(C)C)C(=O)N1 [PLL7-5, Ac-PL3-Cpa-Leu-S5-Arg-Leu-Leu-Gln-Asp-NHMe] (Ac-[X1][Ala(cPr)]L[S5]RLLQD-NHMe; staple 1-4) | 4.1 ± 0.3 µM | 8 ± 2 nm/s | 2 | 109 ± 2% | – | – | – | –
5 | CNC(=O)[C@H](CC(=O)O)NC(=O)[C@H](CC(=O)O)NC(=O)[C@H](CC(C)C)NC(=O)[C@H](CC(C)C)NC(=O)[C@H](Cc1ccc(O)cc1)NC(=O)[C@]1(C)CCCC=CC[C@]2(CCCN2C(C)=O)C(=O)N[C@@H]([C@@H](C)O)C(=O)N[C@@H](CC(C)C)C(=O)N1 (single isomer, unassigned) [PLL7-1, Ac-PL3-Thr-Leu-S5-Tyr-Leu-Leu-Asp-Asp-NHMe] | > 10 µM | 21 ± 4 nm/s | – | 114 ± 3% | 1 | – | – | 21 nm/s
6 | CNC(=O)[C@H](CC(=O)O)NC(=O)[C@H](CC(=O)O)NC(=O)[C@H](CC(C)C)NC(=O)[C@H](CC(C)C)NC(=O)[C@H](Cc1ccc(O)cc1)NC(=O)[C@]1(C)CCCC=CC[C@]2(CCCN2C(C)=O)C(=O)N[C@@H](CC(C)C)C(=O)N[C@@H](CC(C)C)C(=O)N1 [PLL5-2, Ac-PL3-Leu-Leu-S5-Tyr-Leu-Leu-Asp-Asp-NHMe] (Ac-[X1]LL[S5]YLLDD-NHMe; staple 1-4) | – | 16 ± 1 nm/s | 1.7 | 97 ± 2% | – | 0.8 to 1.3 µM | 1.6 ± 0.1 (×10^−6) cm/sec | –
7 | CNC(=O)[C@@H](NC(=O)[C@H](CC(C)C)NC(=O)[C@H](CC(C)C)NC(=O)[C@H](CC1CC1)NC(=O)[C@]1(C)CCCC=CC[C@]2(CCCN2C(C)=O)C(=O)N[C@@H]([C@@H](C)O)C(=O)N[C@@H](CC(C)C)C(=O)N1)[C@@H](C)O [PLL7-23, Ac-PL3-Thr-Leu-S5-Cpa-Leu-Leu-Thr-NHMe] (Ac-[X1]TL[S5][Ala(cPr)]LLT-NHMe; staple 1-4) | 2.4 ± 0.1 µM | < 1 nm/s | 3.2 | 92 ± 2% | – | – | – | –
